In brackets after ≈: the same amount, converted by molar mass. Activity calls are given as the source filed them. The rule behind the calls is not given here.

One test concerns Micrococcus luteus. Put plainly: microbe, parasite or virus in culture. Type of test: functional.
Test [1] has as its system Staphylococcus aureus. In words: microbe, parasite or virus in culture. Type of test: functional.
Test [2] relates to Escherichia coli. Put plainly: In vitro antibacterial activity against Escherichia coli; Active. In kind it is functional, organism-based.
Test [3] has as its system Staphylococcus aureus. Put plainly: Compound was tested by in vitro qualitative microbiological testings with cephalothin against Staphylococcus aureus; positive synergy test. In kind it is functional, organism-based.
Test [4] concerns Escherichia coli. Put plainly: Compound was tested by in vitro qualitative microbiological testings with cephalothin against Escherichia coli; positive synergy test. In kind it is functional, organism-based.
Test [5] deals with Escherichia coli. Put plainly: Compound was tested by in vitro qualitative microbiological testings with cephalothin against Escherichia coli; No anti bacterial activity. Type of test: functional, organism-based.
For test [6], the system named is Staphylococcus aureus. In words: Compound was tested by in vitro qualitative microbiological testings with cephalothin against Staphylococcus aureus; No anti bacterial activity. In kind it is functional, organism-based.

Description for Micrococcus luteus: Antibacterial activity against Micrococcus luteus; 128 to 512 ug/mL

Turning to `CN1CC(NC(=O)Cc2ccccc2)C(=O)N1C(=O)c1cccc(O)c1` (centres undefined), the MIC against Micrococcus luteus and in the test on Staphylococcus aureus [1] was 128 µg/mL (≈ 362 µM) each time.

As to `CN1CC(NC(=O)Cc2ccccc2)C(=O)N1C(=O)c1ccccc1` (centres undefined), in the test on Escherichia coli [2], the result was Active. The MIC in the test on Micrococcus luteus and in the test on Staphylococcus aureus [1] was 128 µg/mL (≈ 379 µM) throughout. In addition, the Activity result with Staphylococcus aureus [3] was “positive synergy test”.

Regarding `CC(=O)N1C(=O)C(NC(=O)Cc2ccccc2)CN1C` (centres undefined), the Activity result with Escherichia coli [4] and in the test on Staphylococcus aureus [3] was “positive synergy test” throughout.

Turning to `CN1CC(NC(=O)Cc2ccccc2)C(=O)N1` (centres undefined), the outcome in the test on Escherichia coli [5] and in the test on Staphylococcus aureus [6] was inactive.

Regarding `CN1CC(NC(=O)Cc2ccccc2)C(=O)N1C(=O)Cc1ccccc1` (centres undefined), the outcome in the test with Escherichia coli [2] was Active. Further, the MIC against Micrococcus luteus and with Staphylococcus aureus [1] was 128 µg/mL (≈ 364 µM) in each case. Further, in the test on Staphylococcus aureus [3], the Activity entry is “positive synergy test”.

The values above are taken from ChEMBL document CHEMBL1131820, “Synthesis of pyrazolidinone antibacterial agents” (1999).
